Structures are written as SMILES. Counter-ions that a name gives are not always drawn.

The nature of data set [1]: Drug release study in cecal contents. It is filed as in vitro ADME, Sprague Dawley rats. Conditions: incubation with cecal contents, after 24 h. As to the method: Drug release study was performed with the celecoxib derivatives as described previously. Six-week-old male Sprague Dawley rats (250–260 g) were sacrificed using CO2, and a midline incision was made. The contents of the proximal small intestine, distal small intestine, and cecum, liver homogenate, or blood plasma were collected and suspended in IPB (20% (w/v)). A1C, G1C, or N-GA1C in the buffer (0.5 mL, 1 mM) was mixed with 0.5 mL of the suspension and then incubated at 37 °C under nitrogen gas. At the predetermined time points, the samples were extracted with 0.5 mL of ethyl acetate followed by centrifugation at 6000× g for 5 min. Methanol (1.0 mL) was added to the residue obtained from the evaporation of 0.1 mL of the organic layer. The solution was centrifuged at 20,000× g at 4 °C for 10 min. The concentrations of celecoxib, A1C, G1C, and N-GA1C in 20 μL of the supernatant were determined by HPLC.

Data set [2] can be described thus: Pharmacokinetic study after oral or intravenous administration. It is filed as in vivo, Sprague Dawley rats. Conditions: rat; for increase of the absolute BA of celecoxib: 20 mg/kg. As for the experimental part:
Blood samples were collected from the jugular vein using a heparinized syringe at predetermined times. Heparinized blood samples were immediately centrifuged at 6000× g for 5 min. Five-fold volume of ethyl acetate was mixed with plasma, centrifugation was performed at 6000× g for 5 min, and 1 mL of the organic solvent was evaporated. The residues were mixed with 0.1 mL of IPB and centrifuged at 20,000× g for 10 min at 4 °C. The concentration of celecoxib or N-GA1C in the samples was determined by HPLC. PK profiling was performed using PKsolver. Absolute BA and relative BA were calculated using the following equations: Absolute BA (F, %) = ((AUC0–∞)PO/dose PO)/((AUC0–∞)IV/dose IV); Relative BA (%) = ((AUC0–∞)A/dose A)/((AUC0–∞)B/dose B).

A short description of data set [3]: Apparent distribution coefficient (logD6.8) measurement, 1-octanol / pH 6.8 isotonic phosphate buffer. It is filed as physicochemical. Conditions: 37 °C; for logD: pH 6.8, 1-octanol / pH 6.8 isotonic phosphate buffer, read-out: Log D6.8 (apparent distribution coefficient). As to the method:
For this study, 1-octanol and pH 6.8 isotonic phosphate buffer (IPB) were pre-saturated with IPB and 1-octanol, respectively. 1-octanol (10 mL) was added to 500 μM of celecoxib, A1C, or N-GA1C in 10 mL IPB. The mixture was shaken for 1 h and left at 37 °C for 3 h. The concentration of celecoxib, A1C, G1C, or N-GA1C in the aqueous phase was analyzed by HPLC. The apparent partition coefficients were calculated using the equation (Co − Cw)/Cw, where Co and Cw represent the initial and equilibrium concentration of the drug in the aqueous phase, respectively.

Data set [4] concerns carrageenan-induced paw edema. The experiment in a line: Carrageenan-induced rat paw edema model. The format is in vivo, Sprague Dawley rats. Conditions: oral 10 mg/kg (equivalent mass of celecoxib). As for the experimental part:
Six-week-old male Sprague Dawley rats (250–260 g) were orally administered celecoxib (10 mg/kg), A1C (equivalent mass of celecoxib), G1C (equivalent mass of celecoxib), N-GA1C (equivalent mass of celecoxib), or IPB as a control. After 1 h, 0.1 mL of carrageenan (1%) was injected into the hind paw of the rats. Carrageenan-induced increase in paw volume (paw edema) was measured at predetermined time points (0, 3, 6, 12, and 24 h). The paw volume of rats up to the knee joint was measured using a plethysmometer. The degree of inhibition of paw edema (%) at each time point was calculated using the following equation: (Control volume − treatment group volume)/Control paw volume × 100.

Setting [5] is: male, Sprague Dawley, plasma, IV, 10 mg/kg.

For `Cc1ccc(-c2cc(C(F)(F)F)nn2-c2ccc(S(=O)(=O)NC(=O)[C@@H](N)CC(=O)O)cc2)cc1` (as salt: salt) [A1C, aspart-1-yl celecoxib], the melting point is 134 to 137 °C.
For `Cc1ccc(-c2cc(C(F)(F)F)nn2-c2ccc(S(=O)(=O)NC(=O)C(N)CCC(=O)O)cc2)cc1` (stereo not shown) (as salt: salt) [G1C, glutam-1-yl celecoxib], the melting point lay in the range of 110 to 115 °C.
`Cc1ccc(-c2cc(C(F)(F)F)nn2-c2ccc(S(=O)(=O)NC(=O)[C@@H](N)CC(=O)O)cc2)cc1` [A1C, aspart-1-yl celecoxib]: in data set [1], the conversion to celecoxib entry is reported as “partially converted to celecoxib”. For the same compound, the “increase in absolute BA” value in data set [2] (oral, 10 mg/kg, vs oral celecoxib) was “no increase”. Also, in data set [2] (oral, vs oral celecoxib), the “increase of the absolute BA of celecoxib” value is recorded as “approximately two”. For the same compound, in data set [3], the logD turned out to be 0.6.
For the compound `Cc1ccc(-c2cc(C(F)(F)F)nn2-c2ccc(S(N)(=O)=O)cc2)cc1` [Celecoxib], in data set [2] (setting [5]), the Vd worked out at 1.04 L/kg, the clearance was determined as 8.01 mL/min/kg and the half-life was 90 min. Besides, the AUC(0-inf) in data set [2] (male, Sprague Dawley, IV, 10 mg/kg, celecoxib in plasma) was found to be 6120 ± 520 ng·h/mL. Besides, the AUC(0-t) in data set [2] (male, Sprague Dawley, IV, 10 mg/kg, celecoxib in plasma, read-out: AUC0–24) stood at 5990 ± 440 ng·h/mL. For the same compound, in data set [4] (at 6 h), the “volume reduction of paw edema” value is given as 42.06 ± 4.69%. For the same compound, the “volume reduction of paw edema” value in data set [4] (at 24 h) was 20.99 ± 2.791%. In data set [3], the logD stood at 4.01.
Consider `Cc1ccc(-c2cc(C(F)(F)F)nn2-c2ccc(S(=O)(=O)NC(=O)C(N)CCC(=O)O)cc2)cc1` (stereo not shown) [G1C, glutam-1-yl celecoxib], for which the conversion to celecoxib result in data set [1] is “partially converted to celecoxib”. The “increase of the absolute BA of celecoxib” value in data set [2] (oral, vs oral celecoxib) is “three”. Moreover, in data set [3], the “Log D6.8 (apparent distribution coefficient)” value came to 0.81 and the logD is 0.8.
Regarding `Cc1ccc(-c2cc(C(F)(F)F)nn2-c2ccc(S(=O)(=O)NC(=O)C(CC(=O)O)NC(=O)CN)cc2)cc1` (stereo not shown) [N-GA1C, N-glycyl-aspart-1-yl celecoxib], in data set [2] (oral N-GA1C 10 mg/kg, for 24 h), the “plasma concentration of N-GA1C” value is “not detected”. The “volume reduction of paw edema” value was 32.42 ± 2.50% in data set [4] (at 6 h) and 78.96 ± 1.56% in data set [4] (at 24 h). The logD in data set [3] is -0.13.

Values taken from PMC7693880, “Preparation and Evaluation of Amino Acid Conjugates of Celecoxib as Prodrugs to Improve the Pharmacokinetic and Therapeutic Properties of Celecoxib” (Pharmaceutics, 2020).
